Data: ChEMBL document CHEMBL4819104, “Discovery of 2-amino-3-amido-5-aryl-pyridines as highly potent, orally bioavailable, and efficacious PERK kinase inhibitors” (Bioorg Med Chem Lett, 2021)
≈ marks a conversion by molar mass, not a printed value.

Experiments:
[1] = Half life in mouse hepatocytes; assay type: ADME, cell-based, Hepatocyte
[2] = Oral bioavailability in mouse at 10 mg/kg; assay type: ADME, organism-based; settings: in vivo
[3] = Efflux ratio of apparent permeability in human Caco-2 cells; assay type: ADME, cell-based
[4] = Plasma protein binding in dog; assay type: ADME, cell-free, Canis lupus familiaris; settings: read-out: PPB (converted)
[5] = Plasma protein binding in rat; assay type: ADME, cell-free; settings: read-out: PPB (converted)
[6] = biological target: T1, Receptor-interacting serine/threonine-protein kinase 1 (Homo sapiens) (UniProt Q13546); assay: Inhibition of wild-type human partial length RIPK1 (M1 to K305 residues) expressed in bacterial expression system assessed as residual activity at 10 uM by Kinomescan method relative to control
T1 sequence (whole entry): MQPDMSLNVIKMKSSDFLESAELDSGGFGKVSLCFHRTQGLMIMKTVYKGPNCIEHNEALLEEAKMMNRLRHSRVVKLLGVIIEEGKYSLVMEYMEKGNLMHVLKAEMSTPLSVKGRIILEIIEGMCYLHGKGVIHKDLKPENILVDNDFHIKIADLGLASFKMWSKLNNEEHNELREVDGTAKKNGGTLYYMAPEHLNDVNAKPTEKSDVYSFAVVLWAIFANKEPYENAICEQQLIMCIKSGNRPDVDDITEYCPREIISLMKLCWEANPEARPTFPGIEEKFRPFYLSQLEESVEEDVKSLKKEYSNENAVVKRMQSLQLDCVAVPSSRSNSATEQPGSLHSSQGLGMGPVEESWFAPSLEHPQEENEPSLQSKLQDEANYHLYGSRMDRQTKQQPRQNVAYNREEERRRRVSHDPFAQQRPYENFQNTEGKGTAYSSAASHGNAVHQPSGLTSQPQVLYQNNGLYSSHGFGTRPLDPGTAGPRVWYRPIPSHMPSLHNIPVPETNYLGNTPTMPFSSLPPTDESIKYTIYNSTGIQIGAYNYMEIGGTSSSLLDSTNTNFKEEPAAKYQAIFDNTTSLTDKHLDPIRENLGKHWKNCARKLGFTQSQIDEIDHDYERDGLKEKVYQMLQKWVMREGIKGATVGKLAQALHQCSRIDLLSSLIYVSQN

[7] = Aqueous solubility of the compound; assay type: physicochemical; settings: buffer
[8] = biological target: Proto-oncogene tyrosine-protein kinase Src (Homo sapiens) (UniProt P12931); assay: Inhibition of wild-type human partial length SRC (L240 to L536 residues) expressed in bacterial expression system assessed as residual activity at 10 uM by Kinomescan method relative to control
[9] = biological target: Tyrosine-protein kinase receptor UFO (Homo sapiens) (UniProt P30530); assay: Inhibition of wild-type human partial length AXL (R497 to Y821 residues) expressed in bacterial expression system assessed as residual activity at 10 uM by Kinomescan method relative to control
[10] = biological target: Mast/stem cell growth factor receptor Kit (Homo sapiens) (UniProt P10721); assay: Inhibition of wild-type human partial length KIT (I571 to D952 residues) expressed in bacterial expression system assessed as residual activity at 10 uM by Kinomescan method relative to control
[11] = biological target: Platelet-derived growth factor receptor beta (Homo sapiens) (UniProt P09619); assay: Inhibition of wild-type human partial length PDGFRbeta (V582 to Y1009 residues) expressed in bacterial expression system assessed as residual activity at 10 uM by Kinomescan method relative to control
[12] = Half life in dog hepatocytes; assay type: ADME, cell-based, Canis lupus familiaris, Hepatocyte
[13] = Half life in mouse at 10 mg/kg, po; assay type: ADME, organism-based; settings: in vivo
[14] = Cmax in mouse at 10 mg/kg, po; assay type: ADME, organism-based; parameters: route oral, dose 10 mg/kg; settings: in vivo
[15] = AUC (0 to last) in mouse at 10 mg/kg, po; assay type: ADME, organism-based; parameters: time 0 - last, route oral, dose 10 mg/kg; settings: in vivo
[16] = biological target: T2, Mitogen-activated protein kinase 12 (Homo sapiens) (UniProt P53778); assay: Inhibition of wild-type human full length p38-gamma (M1 to L367 residues) expressed in mammalian expression system assessed as residual activity at 10 uM by Kinomescan method relative to control
T2 sequence (whole entry): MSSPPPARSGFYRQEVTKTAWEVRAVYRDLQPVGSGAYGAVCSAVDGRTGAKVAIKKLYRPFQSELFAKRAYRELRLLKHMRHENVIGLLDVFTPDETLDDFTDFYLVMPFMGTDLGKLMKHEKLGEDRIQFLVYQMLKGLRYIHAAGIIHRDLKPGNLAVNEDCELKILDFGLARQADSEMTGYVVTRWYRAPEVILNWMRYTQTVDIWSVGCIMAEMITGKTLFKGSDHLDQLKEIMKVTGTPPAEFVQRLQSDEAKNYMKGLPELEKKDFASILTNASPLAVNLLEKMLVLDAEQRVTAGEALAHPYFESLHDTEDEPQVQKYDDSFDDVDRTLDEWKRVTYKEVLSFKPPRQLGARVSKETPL

[17] = biological target: BDNF/NT-3 growth factors receptor (Homo sapiens) (UniProt Q16620); assay: Inhibition of wild-type human partial length TRKB (Q547 to G838 residues) expressed in mammalian expression system assessed as residual activity at 10 uM by Kinomescan method relative to control
[18] = Apparent permeability of the compound across apical to basolateral side in human Caco-2 cells; assay type: ADME, cell-based; settings: read-out: permeability
786-0 = assay: Anticancer activity against human 786-0 cells xenografted in clear cell renal cell carcinoma mouse model assessed as tumor growth inhibition at 10 mg/kg measured at day 28 relative to control; assay type: functional; settings: 786-0, 672 h, read-out: TGI
[19] = Plasma protein binding in mouse; assay type: ADME, cell-free; settings: read-out: PPB (converted)
[20] = Half life in human hepatocytes; assay type: ADME, cell-based, Hepatocyte
[21] = biological target: Macrophage colony-stimulating factor 1 receptor (Homo sapiens) (UniProt P07333); assay: Inhibition of wild-type human partial length CSF1R (I564 to S939 residues) expressed in bacterial expression system assessed as residual activity at 10 uM by Kinomescan method relative to control
[22] = Half life in rat hepatocytes; assay type: ADME, cell-based, Hepatocyte
[23] = test system: Tyrosine-protein kinase ABL1 (Homo sapiens), P00519 [F317L]; assay: Inhibition of human non-phosphorylated ABL1 F317L mutant (S229 to K512 residues) expressed in mammalian expression system assessed as residual activity at 10 uM by Kinomescan method relative to control
[24] = Plasma protein binding in human; assay type: ADME, cell-free; settings: read-out: PPB (converted)

Mast/stem cell growth factor receptor Kit (Homo sapiens), sequence (P10721 whole entry, the tested form may be a part): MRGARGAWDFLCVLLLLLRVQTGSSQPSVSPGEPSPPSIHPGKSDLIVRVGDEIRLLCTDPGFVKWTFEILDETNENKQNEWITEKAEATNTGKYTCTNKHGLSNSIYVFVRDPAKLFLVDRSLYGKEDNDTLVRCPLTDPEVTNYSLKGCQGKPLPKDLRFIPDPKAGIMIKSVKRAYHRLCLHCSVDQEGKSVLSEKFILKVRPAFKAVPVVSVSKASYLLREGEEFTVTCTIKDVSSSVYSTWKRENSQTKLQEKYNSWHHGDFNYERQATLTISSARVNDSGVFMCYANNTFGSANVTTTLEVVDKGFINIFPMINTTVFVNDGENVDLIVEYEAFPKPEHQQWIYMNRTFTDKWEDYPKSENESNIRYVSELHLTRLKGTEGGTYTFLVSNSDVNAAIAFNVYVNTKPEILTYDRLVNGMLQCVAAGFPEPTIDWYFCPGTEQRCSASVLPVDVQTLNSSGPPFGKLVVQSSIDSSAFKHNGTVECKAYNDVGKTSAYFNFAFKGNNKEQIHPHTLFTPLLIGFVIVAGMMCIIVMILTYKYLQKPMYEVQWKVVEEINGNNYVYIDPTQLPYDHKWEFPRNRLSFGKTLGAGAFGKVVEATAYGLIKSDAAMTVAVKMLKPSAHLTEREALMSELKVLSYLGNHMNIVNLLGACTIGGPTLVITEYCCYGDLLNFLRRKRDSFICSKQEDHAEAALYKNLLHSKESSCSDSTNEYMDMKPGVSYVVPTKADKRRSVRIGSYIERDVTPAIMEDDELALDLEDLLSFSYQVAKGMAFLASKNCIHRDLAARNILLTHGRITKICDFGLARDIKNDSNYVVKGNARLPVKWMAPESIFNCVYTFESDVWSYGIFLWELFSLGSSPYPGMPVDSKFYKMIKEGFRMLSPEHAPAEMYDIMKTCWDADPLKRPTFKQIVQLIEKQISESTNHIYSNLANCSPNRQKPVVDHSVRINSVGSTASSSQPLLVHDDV
Platelet-derived growth factor receptor beta (Homo sapiens), sequence (P09619 whole entry, the tested form may be a part): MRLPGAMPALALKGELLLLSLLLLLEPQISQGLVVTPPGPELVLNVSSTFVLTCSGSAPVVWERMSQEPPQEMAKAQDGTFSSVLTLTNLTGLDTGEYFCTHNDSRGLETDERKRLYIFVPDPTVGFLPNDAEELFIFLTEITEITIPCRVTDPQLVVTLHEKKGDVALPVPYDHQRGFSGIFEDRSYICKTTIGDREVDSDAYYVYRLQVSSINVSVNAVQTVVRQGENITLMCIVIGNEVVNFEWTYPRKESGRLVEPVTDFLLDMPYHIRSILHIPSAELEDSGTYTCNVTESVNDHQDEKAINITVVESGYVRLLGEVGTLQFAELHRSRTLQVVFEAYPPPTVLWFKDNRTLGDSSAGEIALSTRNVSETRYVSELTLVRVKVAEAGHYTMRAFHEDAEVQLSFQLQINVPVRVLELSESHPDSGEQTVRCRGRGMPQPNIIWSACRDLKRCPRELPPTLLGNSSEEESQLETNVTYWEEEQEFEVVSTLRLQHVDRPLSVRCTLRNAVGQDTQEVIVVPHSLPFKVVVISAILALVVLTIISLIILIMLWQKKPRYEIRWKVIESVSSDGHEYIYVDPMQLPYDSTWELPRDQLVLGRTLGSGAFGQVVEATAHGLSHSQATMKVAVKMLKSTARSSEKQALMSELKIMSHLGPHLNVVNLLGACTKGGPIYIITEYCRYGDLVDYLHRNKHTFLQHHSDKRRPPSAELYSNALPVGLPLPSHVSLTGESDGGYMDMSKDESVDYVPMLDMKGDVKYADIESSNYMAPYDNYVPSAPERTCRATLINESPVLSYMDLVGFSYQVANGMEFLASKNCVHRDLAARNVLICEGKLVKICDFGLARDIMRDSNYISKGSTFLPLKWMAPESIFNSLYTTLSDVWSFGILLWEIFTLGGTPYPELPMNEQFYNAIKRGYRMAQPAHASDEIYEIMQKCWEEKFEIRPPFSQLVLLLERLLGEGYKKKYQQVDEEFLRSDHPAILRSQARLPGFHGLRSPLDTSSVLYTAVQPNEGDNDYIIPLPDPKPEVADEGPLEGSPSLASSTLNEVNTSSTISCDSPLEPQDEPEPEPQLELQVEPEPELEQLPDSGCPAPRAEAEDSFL
Tyrosine-protein kinase receptor UFO (Homo sapiens), sequence (P30530 whole entry, the tested form may be a part): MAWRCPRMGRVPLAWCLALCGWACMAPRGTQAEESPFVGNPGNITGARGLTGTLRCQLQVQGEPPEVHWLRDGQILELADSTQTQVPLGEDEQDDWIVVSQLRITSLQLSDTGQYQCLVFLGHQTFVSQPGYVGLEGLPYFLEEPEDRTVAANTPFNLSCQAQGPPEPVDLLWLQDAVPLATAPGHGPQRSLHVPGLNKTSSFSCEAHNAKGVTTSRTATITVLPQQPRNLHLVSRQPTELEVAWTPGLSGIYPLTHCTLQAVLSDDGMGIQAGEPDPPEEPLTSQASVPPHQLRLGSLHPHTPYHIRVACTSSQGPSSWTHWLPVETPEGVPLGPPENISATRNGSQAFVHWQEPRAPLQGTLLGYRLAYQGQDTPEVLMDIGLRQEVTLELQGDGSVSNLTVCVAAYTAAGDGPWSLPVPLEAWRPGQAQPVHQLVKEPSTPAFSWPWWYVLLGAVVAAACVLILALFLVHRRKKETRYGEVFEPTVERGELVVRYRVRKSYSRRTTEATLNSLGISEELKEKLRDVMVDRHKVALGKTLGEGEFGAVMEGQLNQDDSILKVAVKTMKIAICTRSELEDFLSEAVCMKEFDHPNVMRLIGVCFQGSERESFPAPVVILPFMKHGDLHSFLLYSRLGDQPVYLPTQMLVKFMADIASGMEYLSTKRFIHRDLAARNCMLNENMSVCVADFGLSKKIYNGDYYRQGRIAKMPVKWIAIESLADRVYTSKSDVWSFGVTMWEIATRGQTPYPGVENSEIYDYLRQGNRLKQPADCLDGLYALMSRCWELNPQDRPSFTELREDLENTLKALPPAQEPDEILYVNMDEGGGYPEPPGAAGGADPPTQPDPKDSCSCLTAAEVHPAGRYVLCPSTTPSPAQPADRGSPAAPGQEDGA
Tyrosine-protein kinase ABL1 (Homo sapiens), P00519 [F317L], sequence (P00519 whole entry F317L, the tested form may be a part): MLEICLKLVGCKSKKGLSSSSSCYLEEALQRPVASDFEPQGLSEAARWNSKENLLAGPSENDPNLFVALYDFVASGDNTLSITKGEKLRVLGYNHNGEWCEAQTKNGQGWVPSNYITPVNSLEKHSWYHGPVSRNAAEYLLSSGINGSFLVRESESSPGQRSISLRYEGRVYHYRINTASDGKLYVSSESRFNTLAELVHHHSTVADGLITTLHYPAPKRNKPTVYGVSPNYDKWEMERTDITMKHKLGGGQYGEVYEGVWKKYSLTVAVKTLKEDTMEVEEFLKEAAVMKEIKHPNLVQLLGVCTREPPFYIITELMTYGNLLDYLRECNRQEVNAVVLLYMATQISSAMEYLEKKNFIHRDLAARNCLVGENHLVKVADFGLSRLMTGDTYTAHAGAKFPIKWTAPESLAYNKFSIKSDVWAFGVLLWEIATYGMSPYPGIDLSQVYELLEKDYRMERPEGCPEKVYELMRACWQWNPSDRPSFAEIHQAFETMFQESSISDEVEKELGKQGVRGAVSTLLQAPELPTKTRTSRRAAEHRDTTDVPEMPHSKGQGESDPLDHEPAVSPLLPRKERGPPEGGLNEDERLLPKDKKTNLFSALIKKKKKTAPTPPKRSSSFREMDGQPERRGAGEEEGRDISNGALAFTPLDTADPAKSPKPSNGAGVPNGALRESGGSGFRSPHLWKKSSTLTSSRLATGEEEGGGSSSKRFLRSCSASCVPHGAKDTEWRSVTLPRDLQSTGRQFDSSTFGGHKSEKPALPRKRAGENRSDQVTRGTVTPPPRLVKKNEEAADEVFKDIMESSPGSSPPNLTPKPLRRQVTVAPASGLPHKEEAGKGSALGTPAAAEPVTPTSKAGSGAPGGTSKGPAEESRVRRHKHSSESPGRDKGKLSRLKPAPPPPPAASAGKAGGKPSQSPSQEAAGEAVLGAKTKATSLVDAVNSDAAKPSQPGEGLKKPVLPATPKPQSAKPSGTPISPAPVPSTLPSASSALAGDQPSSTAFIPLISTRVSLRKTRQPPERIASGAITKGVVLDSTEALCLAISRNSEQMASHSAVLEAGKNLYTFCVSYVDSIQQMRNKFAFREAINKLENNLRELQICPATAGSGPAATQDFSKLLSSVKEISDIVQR
Macrophage colony-stimulating factor 1 receptor (Homo sapiens), sequence (P07333 whole entry, the tested form may be a part): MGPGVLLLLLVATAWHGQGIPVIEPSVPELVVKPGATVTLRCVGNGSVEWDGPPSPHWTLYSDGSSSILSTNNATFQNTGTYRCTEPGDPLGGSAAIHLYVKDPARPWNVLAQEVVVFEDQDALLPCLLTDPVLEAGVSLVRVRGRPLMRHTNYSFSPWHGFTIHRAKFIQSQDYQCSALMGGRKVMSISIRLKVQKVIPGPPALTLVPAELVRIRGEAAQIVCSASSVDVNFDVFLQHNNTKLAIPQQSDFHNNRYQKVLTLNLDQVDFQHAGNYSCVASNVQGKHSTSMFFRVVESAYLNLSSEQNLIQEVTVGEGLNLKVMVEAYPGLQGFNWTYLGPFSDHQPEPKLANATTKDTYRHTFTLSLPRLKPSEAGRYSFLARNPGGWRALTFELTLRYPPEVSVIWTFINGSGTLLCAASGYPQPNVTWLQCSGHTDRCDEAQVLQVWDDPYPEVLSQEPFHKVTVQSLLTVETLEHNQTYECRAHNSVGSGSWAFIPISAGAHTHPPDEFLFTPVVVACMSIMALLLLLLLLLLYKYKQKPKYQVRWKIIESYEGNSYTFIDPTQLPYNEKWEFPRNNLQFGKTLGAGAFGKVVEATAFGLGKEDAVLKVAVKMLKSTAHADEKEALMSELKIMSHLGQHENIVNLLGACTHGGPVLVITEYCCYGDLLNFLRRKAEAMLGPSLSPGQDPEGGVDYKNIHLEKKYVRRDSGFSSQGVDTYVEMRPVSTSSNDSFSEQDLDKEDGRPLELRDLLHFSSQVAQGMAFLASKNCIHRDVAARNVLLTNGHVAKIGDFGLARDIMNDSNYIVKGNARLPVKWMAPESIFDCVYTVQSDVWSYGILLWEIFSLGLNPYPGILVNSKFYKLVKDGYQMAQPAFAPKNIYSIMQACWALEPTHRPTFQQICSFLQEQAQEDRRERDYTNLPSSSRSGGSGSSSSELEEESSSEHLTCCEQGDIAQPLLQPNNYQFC

- half-life [1]: 1.05 h
- bioavailability [2]: 70%
- efflux ratio [3]: 2.3
- fraction unbound [4]: 0.002
- fraction unbound [5]: 0.007
- Activity [6]: 100%
- solubility [7]: 10 µM (≈ 4.69 µg/mL)
- Activity [8]: 97%
- Activity [9]: 70%
- Activity [10]: 67%
- Activity [11]: 60%
- half-life [12]: 8.22 h
- half-life [13]: 2 h
- Cmax [14]: 3350 ng/mL
- AUC(0-t) [15]: 5150 ng·h/mL
- Activity [16]: 87%
- Activity [17]: 100%
- Papp A→B [18]: 22 ×10⁻⁶ cm/s
- fraction unbound [19]: 0.006
- half-life [20]: 5.17 h
- Activity [21]: 74%
- half-life [22]: 0.233 h
- Activity [23]: 100%
- fraction unbound [24]: 0.003
Structure (SMILES): CCc1cc(NC(=O)[C@H](O)c2cc(F)cc(F)c2)ccc1-c1cnc(N)c(C(=O)NC(C)C)c1
- inhibition in vivo at 10 mg/kg (786-0): 40%
